Test [1] concerns the target WFYpSPFLE (Pintide). In words: Fluorescence anisotropy (polarization) binding to fluorescein-labeled phosphorylated Pintide analogue. As to conditions: for binding to Pintide (in words): fluorescence anisotropy. An excerpt:
To determine the affinity of Pin1, and its WW or PPIase domain for phosphopeptides, peptides were labeled with fluorescein and their interactions with Pin1 measured using quantitative fluorescence anisotrophy. To prevent nonspecific labeling, a Pintide analogue (WFYpSPFLE) SEQ ID NO: 9 was used, which binds Pin1 with a high affinity based on the peptide library screen as described by (Lu, K. P. et al., U.S. Ser. No. 60/058,164 (1997), the teachings of which are incorporated herein in their entirety.
Pintide and its nonphosphorylated counterpart were synthesized and incubated with GST-Pin1 or the GST-WW-domain of Pin1 in a binding buffer, using established procedures (Shen, M. et al., Genes & Dev 12:706 (1998)). After a 1 hr incubation, mitotic HeLa cell extracts were added and subjected to GST pull down experiments, followed by immunoblotting analysis using the MPM-2 antibody. To obtain semi-quantitative data, films of immunoblots were scanned at the region of 55 kDa, the major Pin1-binding protein, and data analyzed using ImageQuan (ScanJet II CX). The peptide binding constants were measured using a fluorescence polarization assay (Jiskoot, W. et al., Anal Biochem 196:421 (1991)). Peptides were fluorescein labeled at the N-terminus using the Fluorescein Amine Labeling Kit (Pan Vera Corp.) and purified by TLC according to the manufacturer's […]. To prevent nonspecific labeling, a Pintide analogue (WFYpSPFLE) SEQ ID NO: 8 and the nonphosphorylated control were used. Various concentrations of Pin1 and its mutant proteins were incubated with 0.1 μM of the labeled peptides in a binding buffer containing 50 mM HEPES, pH 7.4, 100 mM NaCl, 2% glycerol. Fluorescence polarization values were obtained using a Pan Vera Beacon 2000 system, as described by the manufacturer.

Test [2] deals with WFYSPFLE
In words: Fluorescence anisotropy binding to fluorescein-labeled nonphosphorylated control peptide. As to conditions: for WFYSPFLE Kd: nonphosphorylated peptide.

For test [3], the system named is mitotically phosphorylated Cdc25C. Briefly: GST pull down of phosphorylated Cdc25C and CIP dephosphorylation. The note with it: for protection of bound Cdc25C from dephosphorylation by CIP: Cdc25C precipitated on GST beads, then CIP; for binding to Cdc25C (in words): mitotic versus interphase phosphorylated form. Type of test: binding. The text has this: To confirm that Nedd4 WW-domains bind a specific phosphoprotein in a phosphorylation-dependent manner interactions between Nedd4 WW-domains and Cdc25C were examined. To various degrees, all three Nedd4 WW-domains bound the mitotically phosphorylated form, but not the interphase phosphorylated form of both HeLa Cdc25C and in vitro synthesized Xenopus Cdc25C. […] The Kd values for the phosphopeptides were also lower than those for the Pro-rich peptide that was thought to be a Nedd4 WW-domain-binding site (Table 1) (Chen, H. I., et al., Proc. Natl. Acad. Sci. USA 92:7819 (1995); Staub, O., et al., EMBO J. 15:2371 (1996); Bedford, M. J., et al., EMBO J., 16:2376 (1997)).
Interactions between the WW-domain of Pin1 and specific phosphorylated ligands were examined. To detect phosphorylation-dependent interaction, Cdc25C, Plk1 and Pin1 ligands, were synthesized by in vitro transcription and translation in the presence of ^35S-Met and incubated with Xenopus interphase or mitotic extracts or mitotic extracts followed by treatment with calf intestine phosphatase (M+CIP). Protein complexes were separated on SDS-gels either directly (input) or first subjected to GST pull down with the N-terminal WW-domain (amino acids 1-54) or C-terminal PPIase domain (amino acids 47-163) or the entire Pin1 protein (Shen, M. et al., Genes & Dev 12:706 (1998)). The labeled protein-GST bead complexes were washed extensively and bound proteins analyzed by SDS-PAGE and autoradiography using standard techniques.
To determine whether WW-domain binding protects dephosphorylation of its targets ^35S labeled (His)6 epitope tagged Cdc25C was phosphorylated by mitotic extracts and precipitated by GST fusion protein beads or Ni-NTA beads. The isolated Cdc25C was then incubated with control buffer or CIP, followed by separation on SDS-containing gels and autoradiography.

Test [4] relates to phosphorylated tau. Briefly: GST-Pin1 pulldown of tau. Format: binding. The note with it: for binding to Cdc2 phosphorylated tau: tau phosphorylated by Cdc2 in vitro. The text has this:
Pin1 binds and regulates the function of a defined subset of mitotic phosphoproteins by interacting with conserved phosphorylated Ser/Thr-Pro motifs that are also recognized by MPM-2, a mitosis-specific, phosphorylation-dependent monoclonal antibody (mAb) (Yaffe, M. B. et al., Science 278:1957-1960 (1997); Shen, M. et al., Genes Dev. 12:706-720 (1 998)). Tau is an MPM-2 antigen phosphorylated on multiple Ser/Thr-Pro motifs during mitosis (Illenberger, S. et al., Mol Biol Cell 9:1495-1512 (1998)). Experiments were undertaken to determine whether Pin1 binds tau. Tau isoform was either synthesized by in vitro transcription and translation in the presence of ^35S-Met or produced in bacteria as an N-terminal His-tagged protein, followed by purification using NTA-Ni columns (Yaffe, M. B. et al., Science 278:1957-1960 (1997); Shen, M. et al., Genes Dev. 12:706-720 (1998)). To generate interphase- and mitosis-specific phosphorylated form of tau, tau was incubated with Xenopus interphase and mitotic extracts, respectively (Shen, M. et al., Genes Dev. 12:706-720 (1998)). To prepare Cdc2 phosphorylated tau, purified recombinant tau was incubated with purified cyclin B/Cdc2 (UBI) for 6 to 12 hr at room temperature in a buffer containing 500 μM cold ATP, plus trace [^32P]-ATP in some experiments, (Vincent, I. et al., J Neurosci 17:3588-3598 (1997)).
Pin1 interactions with tau in AD brains were examined using a GST-Pin1 pulldown assay (Shen, M. et al., Genes Dev. 12:706-720 (1998)). Glutathione beads containing GST or GST-Pin1 were incubated with normal or AD brain extracts, or PHFs purified (Vincent, I. J. and Davies, P. Proc Natl Acad Sci USA 89:2878-2882 (1992)), and proteins associated with the beads were subjected to immunoblotting analysis using CP27, which recognizes all forms of tau. Recombinant and mutant Pin1 proteins were produced as N-terminal GST or His-tagged fusion proteins (Shen, M. et al., Genes Dev. 12:706-720 (1998)). PHFs were purified by immunoaffinity chromatography (Vincent, I. J. and Davies, P. Proc Natl Acad Sci USA 89:2878-2882 (1992)).
To determine whether Pin1 interacts with pT231-tau, GST-Pin1 beads were used to isolate tau from AD brain extracts or PHFs and T231 phosphorylation detected using CP9. Tau isolated by Pin1 beads was strongly immunoreactive with CP9. […] Thus, Pin1 binds pT231-tau through its WW-domain.

[5] abbreviates: high affinity binding site, read-out: WFYpSPFLE Kd(μM) High affinity.

Values joined by “and” are separate entries in the source; they are usually repeats but may differ in a detail not shown here. Equal values may be shown once. “Also recorded” adds a separate entry of the source. Read-outs that look alike come from different tables or passages of the source.

phosphorylated tau, sequence (P10636 45-216 isoform P10636-2 limits assumed): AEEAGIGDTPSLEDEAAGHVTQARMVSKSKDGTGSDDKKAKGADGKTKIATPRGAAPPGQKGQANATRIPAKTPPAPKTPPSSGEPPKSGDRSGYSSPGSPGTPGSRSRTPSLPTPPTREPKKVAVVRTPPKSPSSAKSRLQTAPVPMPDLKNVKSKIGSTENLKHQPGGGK

“Pin1 WW-domain: N-terminal WW-domain (amino acids 1-54) of Pin1 (MADEEKLPPGWEKRMSRSSGRVYYFNHITNASQWERPSGNSSSGGKNGQGEPAR; left off: a dimerising Fc or GST)”: the Kd in test [1] (GST-WW-domains, fluorescein-labeled peptide, average of three independent experiments, read-out: Kd (μM) Pintide WFYpSPFLE) worked out at 1 µM. Besides, the “binding to Pintide (in words)” value in test [1] is given as “bound Pintide”. Also, the Kd in test [1] (setting [5]) was 1.2 µM and 1 µM. The “Kd (μM) Pintide nonphosphorylated WFYSPFLE” value in test [2] (GST-WW-domains, N.B., not binding detected) is listed as “N.B”. For the same substance, the “WFYSPFLE Kd” value in test [2] is reported as “No binding was detected; also recorded: Not binding”. Moreover, in test [3], the “protection of bound Cdc25C from dephosphorylation by CIP” value was “CIP failed to dephosphorylate Cdc25C” and the “binding to Cdc25C (in words)” value is “bound the phosphorylated Cdc25C in mitotic cell extracts, but not interphase extracts”. For the same substance, the “binding to Cdc2 phosphorylated tau” value in test [4] was “bound Cdc2 phosphorylated tau”.
As to “Pin1: wild-type human prolyl isomerase (PPIase) Pin1 with N-terminal WW-domain; tag cleaved in Table 2”, in test [1], the “binding to Pintide (in words)” value is “bound Pintide”. Also, the Kd in test [1] (setting [5]) was determined as 1.2 µM. Besides, the Kd in test [1] (low affinity binding site, read-out: WFYpSPFLE Kd(μM) Low affinity) turned out to be 11 µM. Moreover, the “WFYSPFLE Kd” value in test [2] is “No binding was detected; also recorded: Not binding”. Moreover, in test [3], the “protection of bound Cdc25C from dephosphorylation by CIP” value was “CIP failed to dephosphorylate Cdc25C” and the “binding to Cdc25C (in words)” value was “bound the phosphorylated Cdc25C in mitotic cell extracts, but not interphase extracts”. The “binding to tau of brain extracts” value in test [4] (AD brain extracts, PHFs or age-matched normal brain extracts) was “did not bind tau in age-matched normal brain extracts”. Besides, the “binding to tau incubated with Xenopus extracts” value in test [4] (interphase or mitotic extracts) is “did bind tau that was phosphorylated by mitotic extracts”. In addition, in test [4], the “binding to Cdc2 phosphorylated tau” value is reported as “bound Cdc2 phosphorylated tau”.

The record behind these values is patent publication US6495376B1, “Methods and compositions for regulating protein-protein interactions” (Beth Israel Deaconess Medical Center, priority 1999, dated 2002).
